We go through two molecules from ChEMBL document CHEMBL4321836, “Discovery of BAY-298 and BAY-899: Tetrahydro-1,6-naphthyridine-Based, Potent, and Selective Antagonists of the Luteinizing Hormone Receptor Which Reduce Sex Hormone Levels in Vivo” (J Med Chem, 2019).

Converted amounts (≈) assume the structure as drawn.

The target of series [1] is T1, Lutropin-choriogonadotropic hormone receptor (Homo sapiens, UniProt P22888). Kind of series: Negative allosteric modulation of human luteinizing hormone receptor assessed as reduction in glycoprotein human luteinizing hormone-induced agonist activity preincubated for 20 mins followed by 100 times EC80 of agonist addition and measured after 60 mins by cell based TR-FRET assay relative to control. A general note: TR-FRET usually uses a lanthanide donor and a delayed reading to cut background.
T1 sequence (P22888 whole entry): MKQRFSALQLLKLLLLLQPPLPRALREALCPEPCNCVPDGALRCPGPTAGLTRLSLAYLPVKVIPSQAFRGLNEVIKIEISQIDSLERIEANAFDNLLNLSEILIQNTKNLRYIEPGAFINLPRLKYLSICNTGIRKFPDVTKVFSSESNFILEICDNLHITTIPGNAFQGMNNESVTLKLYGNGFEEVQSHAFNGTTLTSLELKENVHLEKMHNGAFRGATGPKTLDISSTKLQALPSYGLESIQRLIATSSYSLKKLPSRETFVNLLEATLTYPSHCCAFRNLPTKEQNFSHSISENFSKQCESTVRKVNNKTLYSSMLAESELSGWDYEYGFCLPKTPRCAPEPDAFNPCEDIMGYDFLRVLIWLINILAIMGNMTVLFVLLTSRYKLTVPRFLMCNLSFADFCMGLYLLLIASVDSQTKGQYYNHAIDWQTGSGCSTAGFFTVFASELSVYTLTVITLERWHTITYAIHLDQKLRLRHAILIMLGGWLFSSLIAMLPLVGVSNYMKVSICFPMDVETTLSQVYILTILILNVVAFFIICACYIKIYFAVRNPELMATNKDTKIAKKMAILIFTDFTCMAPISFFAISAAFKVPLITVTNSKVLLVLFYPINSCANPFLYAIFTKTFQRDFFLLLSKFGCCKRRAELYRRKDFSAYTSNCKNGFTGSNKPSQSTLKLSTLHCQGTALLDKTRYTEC

The target of series [2] is T1, Lutropin-choriogonadotropic hormone receptor. Put plainly: Negative allosteric modulation of human luteinizing hormone receptor assessed as Emax for glycoprotein human luteinizing hormone-induced agonist activity at 0.84 nM to 17 uM preincubated for 20 mins followed by 10 times EC80 of agonist addition and measured after 60 mins by cell based TR-FRET assay relative to control.

Series [3] deals with Cytochrome P450 3A4 (Homo sapiens, UniProt P08684). Kind of series: Inhibition of CYP3A4 in human liver microsomes using midazolam as substrate by LC-MS/MS analysis. The format is ADME. In general terms: Microsomes from liver hold many membrane-bound enzymes, among them those of drug oxidation.
Cytochrome P450 3A4, sequence (P08684 whole entry): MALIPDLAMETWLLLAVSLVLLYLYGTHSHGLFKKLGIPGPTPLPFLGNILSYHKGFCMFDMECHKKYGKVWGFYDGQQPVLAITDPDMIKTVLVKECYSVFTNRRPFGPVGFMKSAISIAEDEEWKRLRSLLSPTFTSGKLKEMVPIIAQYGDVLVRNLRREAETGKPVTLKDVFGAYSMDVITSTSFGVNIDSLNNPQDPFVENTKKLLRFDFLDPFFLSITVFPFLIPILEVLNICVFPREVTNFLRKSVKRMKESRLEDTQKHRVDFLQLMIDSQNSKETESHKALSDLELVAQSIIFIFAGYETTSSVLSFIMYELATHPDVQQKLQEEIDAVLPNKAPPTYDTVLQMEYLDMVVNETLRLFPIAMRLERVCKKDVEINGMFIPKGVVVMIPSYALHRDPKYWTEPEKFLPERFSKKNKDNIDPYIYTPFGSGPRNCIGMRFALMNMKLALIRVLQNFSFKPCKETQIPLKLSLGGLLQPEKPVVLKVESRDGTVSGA
The target in series [4] is Beta-2 adrenergic receptor (Homo sapiens) (UniProt P07550). Kind of series: Agonist activity at human beta2 adrenergic receptor expressed in CHO-K1 cells at 10 uM after 30 mins HTRF assay relative to control. The class given is cell-based.
Beta-2 adrenergic receptor (Homo sapiens), sequence (P07550 whole entry, looked up): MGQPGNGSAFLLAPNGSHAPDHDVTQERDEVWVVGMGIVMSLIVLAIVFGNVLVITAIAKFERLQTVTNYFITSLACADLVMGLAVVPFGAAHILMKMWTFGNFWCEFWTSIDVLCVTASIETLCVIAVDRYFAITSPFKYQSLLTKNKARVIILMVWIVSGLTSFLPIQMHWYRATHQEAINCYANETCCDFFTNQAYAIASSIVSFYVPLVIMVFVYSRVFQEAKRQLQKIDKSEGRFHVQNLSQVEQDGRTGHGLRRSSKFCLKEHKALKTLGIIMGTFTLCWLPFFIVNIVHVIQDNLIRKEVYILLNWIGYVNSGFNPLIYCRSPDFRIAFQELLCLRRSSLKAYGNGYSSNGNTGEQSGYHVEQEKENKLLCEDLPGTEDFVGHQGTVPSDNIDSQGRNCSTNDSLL
For series [5], the target named is T2, Muscarinic acetylcholine receptor M1 (Homo sapiens) (UniProt P11229).
T2 sequence (whole entry): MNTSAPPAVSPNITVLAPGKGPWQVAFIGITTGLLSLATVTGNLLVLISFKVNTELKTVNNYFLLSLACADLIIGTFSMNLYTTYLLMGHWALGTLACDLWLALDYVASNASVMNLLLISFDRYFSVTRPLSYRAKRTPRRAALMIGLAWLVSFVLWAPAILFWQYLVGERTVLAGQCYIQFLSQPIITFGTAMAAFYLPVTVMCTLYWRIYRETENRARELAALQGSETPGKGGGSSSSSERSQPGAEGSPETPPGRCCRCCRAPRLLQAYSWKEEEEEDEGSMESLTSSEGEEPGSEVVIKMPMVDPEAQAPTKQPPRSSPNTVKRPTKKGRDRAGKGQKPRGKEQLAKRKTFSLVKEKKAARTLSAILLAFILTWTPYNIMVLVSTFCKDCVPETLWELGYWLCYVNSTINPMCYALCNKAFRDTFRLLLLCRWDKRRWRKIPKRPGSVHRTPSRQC
Kind of series: Agonist activity at human muscarinic M1 receptor expressed in CHO-K1 cells at 10 uM by fluorimetric method relative to control. The class given is cell-based.

Series [6] is described as follows: Half life in Wistar rat at 0.5 mg/kg, iv after 2 to 72 hrs by LC-MS/MS analysis. The format is ADME, organism-based. The settings on record: in vivo.
For series [7], the target named is Cannabinoid receptor 1 (Homo sapiens) (UniProt P21554). Kind of series: Antagonist activity at human CB1 receptor expressed in CHO-K1 cells at 10 uM after 20 mins HTRF assay relative to control. The format is cell-based. Further details: scale not given: the % may be the effect or the level left.
A short description of series [8]: Clearance in Han Wistar rat hepatocytes at 1 uM measured after 2 to 90 mins by LC-MS/MS analysis. The format is ADME, cell-based, Hepatocyte.
Series [9] addresses D(2) dopamine receptor (Homo sapiens) (UniProt P14416). Kind of series: Agonist activity at human Dopamine D2L receptor expressed in CHO-K1 cells at 10 uM by Fluorimetric analysis relative to control. The format is cell-based.
In series [10] the target is Cytochrome P450 2C9 (Homo sapiens, UniProt P11712). Kind of series: Inhibition of CYP2C9 in human liver microsomes using diclofenac as substrate by LC-MS/MS analysis. The class given is ADME.
Series [11] has as its target T1, Lutropin-choriogonadotropic hormone receptor. Kind of series: Negative allosteric modulation of human luteinizing hormone receptor assessed as reduction in Org 43553-induced agonist activity preincubated for 20 mins followed by 1 times EC80 of agonist addition and measured after 60 mins by cell based TR-FRET assay relative to control.
Series [12] relates to Rattus norvegicus. Put plainly: Downregulation of human luteinizing hormone-induced progesterone expression in plasma of cetrorelix-treated female rat at 27 mg/kg, iv after 2 hrs by radioimmunoassay method (reference value: 243 nM). The format is functional.
The target of series [13] is T2, Muscarinic acetylcholine receptor M1 (Homo sapiens). Kind of series: Antagonist activity at human muscarinic M1 receptor expressed in CHO-K1 cells at 10 uM by fluorimetric method relative to control. The class given is cell-based. Further details: scale not given: the % may be the effect or the level left.
The target of series [14] is Histamine H1 receptor (Homo sapiens) (UniProt P35367). Put plainly: Agonist activity at human histamine H1 receptor expressed in HEK293 cells at 10 uM by Fluorimetric method relative to control. The format is cell-based.
Histamine H1 receptor (Homo sapiens), sequence (P35367 whole entry): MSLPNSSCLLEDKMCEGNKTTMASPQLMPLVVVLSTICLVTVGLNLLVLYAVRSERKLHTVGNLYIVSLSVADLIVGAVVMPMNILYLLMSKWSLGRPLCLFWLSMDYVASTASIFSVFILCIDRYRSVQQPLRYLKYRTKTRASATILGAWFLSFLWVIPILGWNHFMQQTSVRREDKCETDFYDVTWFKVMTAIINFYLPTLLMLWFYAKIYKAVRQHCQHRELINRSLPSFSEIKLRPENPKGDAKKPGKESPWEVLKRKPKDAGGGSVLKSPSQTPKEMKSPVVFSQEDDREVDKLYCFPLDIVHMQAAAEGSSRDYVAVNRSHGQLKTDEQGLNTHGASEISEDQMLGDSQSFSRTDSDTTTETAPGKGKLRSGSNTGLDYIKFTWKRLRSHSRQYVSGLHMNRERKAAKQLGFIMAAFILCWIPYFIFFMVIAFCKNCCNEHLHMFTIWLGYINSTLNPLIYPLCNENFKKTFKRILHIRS
In series [15] the target is Thyrotropin receptor (Homo sapiens, UniProt P16473). Kind of series: Antagonist activity at human thyroid stimulating hormone receptor expressed in rat HTC133 cells assessed as reduction in agonist-induced cAMP production preincubated for 20 mins followed by agonist solution addition and measured after 60 mins by cell based TR-FRET assay. The class given is functional.
Thyrotropin receptor, sequence (P16473 whole entry): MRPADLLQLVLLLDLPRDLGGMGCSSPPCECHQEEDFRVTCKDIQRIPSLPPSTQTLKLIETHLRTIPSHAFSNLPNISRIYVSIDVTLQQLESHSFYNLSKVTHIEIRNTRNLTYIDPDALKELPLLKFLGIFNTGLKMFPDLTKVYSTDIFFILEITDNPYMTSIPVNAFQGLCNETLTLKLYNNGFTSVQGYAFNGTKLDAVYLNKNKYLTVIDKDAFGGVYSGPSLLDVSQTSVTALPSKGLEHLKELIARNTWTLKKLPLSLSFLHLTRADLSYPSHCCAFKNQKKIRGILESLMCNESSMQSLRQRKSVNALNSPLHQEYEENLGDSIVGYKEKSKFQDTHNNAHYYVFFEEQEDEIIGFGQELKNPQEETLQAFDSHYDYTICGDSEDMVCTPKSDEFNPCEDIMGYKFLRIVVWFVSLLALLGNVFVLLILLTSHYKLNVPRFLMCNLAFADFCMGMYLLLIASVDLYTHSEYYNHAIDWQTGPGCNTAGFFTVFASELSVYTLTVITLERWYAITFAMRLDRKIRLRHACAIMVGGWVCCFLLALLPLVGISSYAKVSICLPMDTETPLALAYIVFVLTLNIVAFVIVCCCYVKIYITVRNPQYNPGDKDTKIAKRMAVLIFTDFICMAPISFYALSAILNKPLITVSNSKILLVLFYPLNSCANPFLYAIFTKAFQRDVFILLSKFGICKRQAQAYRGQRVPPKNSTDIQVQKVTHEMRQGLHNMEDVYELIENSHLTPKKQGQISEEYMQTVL

Series [16] in a line: Aqueous solubility of the compound at pH 6.5 incubated for 24 hrs under shaking condition by HPLC-MS/MS analysis. The class given is physicochemical. The settings on record: buffer.
In series [17] the target is P2Y purinoceptor 2 (Homo sapiens) (UniProt P41231). Kind of series: Agonist activity at human P2Y2 receptor expressed in human 1321N1 cells at 10 uM by fluorimetric method relative to control. The format is cell-based.
P2Y purinoceptor 2 (Homo sapiens), sequence (P41231 whole entry): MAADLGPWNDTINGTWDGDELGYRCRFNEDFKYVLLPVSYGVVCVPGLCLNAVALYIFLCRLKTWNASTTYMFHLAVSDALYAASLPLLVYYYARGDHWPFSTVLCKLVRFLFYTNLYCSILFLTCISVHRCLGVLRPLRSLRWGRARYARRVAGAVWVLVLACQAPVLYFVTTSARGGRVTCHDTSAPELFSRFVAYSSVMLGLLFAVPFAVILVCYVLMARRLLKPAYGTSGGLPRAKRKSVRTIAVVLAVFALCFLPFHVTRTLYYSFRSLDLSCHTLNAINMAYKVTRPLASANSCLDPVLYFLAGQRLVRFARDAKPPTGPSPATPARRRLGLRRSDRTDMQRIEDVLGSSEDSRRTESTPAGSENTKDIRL
The target in series [18] is T1, Lutropin-choriogonadotropic hormone receptor. Kind of series: Negative allosteric modulation of human luteinizing hormone receptor assessed as reduction in glycoprotein human luteinizing hormone-induced agonist activity preincubated for 20 mins followed by 1 times EC80 of agonist addition and measured after 60 mins by cell based TR-FRET assay relative to control.

Series [19] addresses Histamine H3 receptor (Homo sapiens) (UniProt Q9Y5N1). Put plainly: Agonist activity at human histamine H3 receptor expressed in CHO-K1 cells at 10 uM after 10 mins by HTRF assay relative to control. The format is cell-based.
The target in series [20] is Somatostatin receptor type 4 (Homo sapiens) (UniProt P31391). Kind of series: Agonist activity at human sst4 expressed in CHO-K1 cells at 10 uM after 10 mins by HTRF assay relative to control. The format is cell-based.
Somatostatin receptor type 4 (Homo sapiens), sequence (P31391 whole entry): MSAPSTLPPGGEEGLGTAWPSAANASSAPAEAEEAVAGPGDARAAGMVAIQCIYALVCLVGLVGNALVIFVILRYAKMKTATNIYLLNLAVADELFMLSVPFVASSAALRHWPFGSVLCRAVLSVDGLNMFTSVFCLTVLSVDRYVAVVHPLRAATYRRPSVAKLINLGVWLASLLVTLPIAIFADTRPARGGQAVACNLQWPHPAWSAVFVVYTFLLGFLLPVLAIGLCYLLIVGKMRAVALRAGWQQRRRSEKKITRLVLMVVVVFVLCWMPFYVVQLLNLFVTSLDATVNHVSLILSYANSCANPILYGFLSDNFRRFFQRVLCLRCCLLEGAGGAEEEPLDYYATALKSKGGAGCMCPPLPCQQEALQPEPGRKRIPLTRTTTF
Series [21] concerns Rattus norvegicus. Kind of series: Downregulation of estradiol level in proestrus staged-female rat serum at 36 mg/kg, po administered once daily for 8 days and measured by radioimmunoassay method (reference value: 125 pmol/L). The format is functional.
Series [22] has as its target Substance-P receptor (Homo sapiens) (UniProt P25103). Put plainly: Agonist activity at human NK1 receptor expressed in U373 MG cells at 10 uM by fluorimetric method relative to control. The settings on record: U-373MG ATCC. The class given is cell-based.
Series [23] can be described thus: Efflux ratio of apparent permeability from basolateral to apical over apical to basolateral side in human Caco2 cells at 2 uM after 2 hrs by LC-MS/MS analysis. The format is ADME, cell-based. The settings on record: Caco-2. (Caco-2 cells form a polarised layer with tight junctions and transporters.)
Series [24] can be described thus: Tmax in Wistar rat at 2 mg/kg, po after 8 to 72 hrs by LC-MS/MS analysis. The class given is ADME, organism-based. The settings on record: in vivo.
Series [25] can be described thus: Maximum oral bioavailability in Han Wistar rat hepatocytes at 1 uM measured after 2 to 90 mins by LC-MS/MS analysis. The class given is ADME, Hepatocyte. The settings on record: read-out: Fmax.
The subject of series [26] is Rattus norvegicus. Put plainly: Downregulation of estradiol level in proestrus staged-female rat serum at 18 mg/kg, po administered once daily for 8 days and measured by radioimmunoassay method (reference value: 125 pmol/L). The class given is functional.
The target in series [27] is Histamine H2 receptor (Homo sapiens) (UniProt P25021). Put plainly: Antagonist activity at human histamine H2 receptor expressed in CHO-K1 cells at 10 uM after 30 mins by HTRF assay relative to control. The format is cell-based. Further details: scale not given: the % may be the effect or the level left.
Series [28] addresses T1, Lutropin-choriogonadotropic hormone receptor. Kind of series: Negative allosteric modulation of human luteinizing hormone receptor assessed as Emax for glycoprotein human luteinizing hormone-induced agonist activity at 0.84 nM to 17 uM preincubated for 20 mins followed by 1 times EC80 of agonist addition and measured after 60 mins by cell based TR-FRET assay relative to control.

Histamine H3 receptor (Homo sapiens), sequence (Q9Y5N1 whole entry): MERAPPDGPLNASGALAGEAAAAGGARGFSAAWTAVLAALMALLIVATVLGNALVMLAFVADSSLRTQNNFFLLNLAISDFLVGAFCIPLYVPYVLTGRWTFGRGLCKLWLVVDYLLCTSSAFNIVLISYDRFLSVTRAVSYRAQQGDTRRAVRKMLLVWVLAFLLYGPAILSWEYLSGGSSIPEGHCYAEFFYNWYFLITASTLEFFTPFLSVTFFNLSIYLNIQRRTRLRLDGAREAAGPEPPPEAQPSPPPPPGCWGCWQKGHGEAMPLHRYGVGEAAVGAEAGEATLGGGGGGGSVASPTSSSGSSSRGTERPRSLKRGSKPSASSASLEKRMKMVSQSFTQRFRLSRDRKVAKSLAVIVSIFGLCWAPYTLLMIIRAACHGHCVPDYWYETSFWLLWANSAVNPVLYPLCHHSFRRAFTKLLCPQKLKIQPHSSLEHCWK
D(2) dopamine receptor (Homo sapiens), sequence (P14416 whole entry): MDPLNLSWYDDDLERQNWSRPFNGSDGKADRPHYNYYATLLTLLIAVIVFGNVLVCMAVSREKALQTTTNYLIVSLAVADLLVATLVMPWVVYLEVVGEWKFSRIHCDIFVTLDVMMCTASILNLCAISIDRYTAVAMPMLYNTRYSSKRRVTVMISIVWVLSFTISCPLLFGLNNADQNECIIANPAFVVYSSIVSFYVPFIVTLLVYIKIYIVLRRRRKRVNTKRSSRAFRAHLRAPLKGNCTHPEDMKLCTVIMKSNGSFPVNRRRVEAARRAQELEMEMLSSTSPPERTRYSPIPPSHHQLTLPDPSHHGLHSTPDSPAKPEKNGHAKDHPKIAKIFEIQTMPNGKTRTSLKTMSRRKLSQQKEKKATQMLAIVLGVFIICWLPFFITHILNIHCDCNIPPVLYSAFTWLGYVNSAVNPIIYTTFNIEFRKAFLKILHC
Substance-P receptor (Homo sapiens), sequence (P25103 whole entry): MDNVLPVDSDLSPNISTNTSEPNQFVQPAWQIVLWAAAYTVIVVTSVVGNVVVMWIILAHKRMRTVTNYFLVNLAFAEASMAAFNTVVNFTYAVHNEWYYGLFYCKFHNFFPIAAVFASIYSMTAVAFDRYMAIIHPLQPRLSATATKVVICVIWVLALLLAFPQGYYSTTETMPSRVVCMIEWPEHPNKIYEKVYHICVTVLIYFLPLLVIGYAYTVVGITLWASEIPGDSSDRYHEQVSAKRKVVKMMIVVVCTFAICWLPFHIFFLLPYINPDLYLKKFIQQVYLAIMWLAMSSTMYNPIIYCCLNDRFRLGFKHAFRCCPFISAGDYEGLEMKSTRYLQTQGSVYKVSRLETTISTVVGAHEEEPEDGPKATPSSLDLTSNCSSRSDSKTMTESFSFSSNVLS

Usually IC50 stands for the concentration needed to halve the response being measured. As a reminder, the Emax is the greatest response seen or fitted, relative to the assay's reference. Broadly, the half-life is how long it takes for the measured level to halve. One may read the solubility as the concentration that dissolves in the medium under given conditions. What is called efflux ratio is a quotient of directional permeabilities that is used to spot active efflux. In general, Tmax refers to the time at which the peak concentration occurs. Regarding `O=C(Nc1ccc(Oc2ccc(F)cc2)cc1)N1CCc2ncccc2[C@@H]1c1ccc(Cl)cc1`, the IC50 in [1] is 2.5 µM; in series [3], > 20 µM; in series [10], 4.4 µM; in series [11] it was 0.65 µM; in series [15], 2.3 µM; in series [18], 0.097 µM. The results for the Emax in [2] and in [28] were 106% and 99%, respectively. For the same molecule, the Activity in series [4] is < 70%; in series [5], < 70%; in series [7], < 70%; in series [9], < 70%; in series [12], 50 nM; in series [13], < 70%. The Activity in series [14] is < 70%; in series [17], < 70%; in series [19], < 70%; in series [20], < 70%; in series [21], 48 pmol/L; in series [22], < 70%. The Activity in series [26] was 70 pmol/L; in series [27], < 70%. The molecule further showed a half-life in [6] of 11 h. In series [8], this molecule gave a CLH of 18.3 mL/min/kg. The amount in solution in series [16] (solubility at 24 h) came to 3.5 µg/mL (≈ 7.38 µM). Also, the efflux ratio at 2 h, 2 µM in series [23] turned out to be 1.3. Further, the Tmax in series [24] amounted to 24 h. In addition, in series [25], the Fh at 1 µM was determined as 74%.
Regarding `O=C(Nc1cnc(Oc2ccc(F)cc2)nc1)N1CCc2ncccc2[C@@H]1c1ccc(F)cc1` [BAY-899], the IC50 in [3] is > 20 µM; in series [10] it was 9.9 µM; in series [15] it was 24 µM. In addition, the Activity in [4], in series [5], in series [7], in series [9], in [13] and in [14] was < 70% each time. Moreover, the Activity in series [17], in series [19], in [20], in series [22] and in series [27] was < 70% in each case. The molecule further gave a half-life in [6] of 31 h. For the same molecule, the CLH in series [8] turned out to be 21.7 mL/min/kg. In series [16], this molecule registered a solubility at 24 h of 39 µg/mL (≈ 84.9 µM). The efflux ratio at 2 h, 2 µM in series [23] turned out to be 1.1. Besides, in series [24], the Tmax was 8 h. The Fh at 1 µM in series [25] turned out to be 68%.
